Assay results: paper PMC12297533 (Scientific Reports, 2025)
Like-named read-outs stand apart in the source and are kept apart here.

Legend:
COX-1 = target: T1, COX-1 (Homo sapiens, UniProt P23219); test: In vitro COX-1 enzyme inhibitory assay (Cayman kit); type: biochemical; details: mean ± SD, n = 3
T1 construct: purchased Cayman No.548
Experimental: (§1) The ability to inhibit COX-1 and COX-2 enzymes was evaluated as previously reported[35],[36], using COX-1 Cayman human enzyme inhibitory assay kit (No.548, USA), COX-2 Cayman human enzyme inhibitory assay kit (No.547, USA) and Tecan Spark reader. […] The % Relative Inhibition was calculated as follows: [drawing 1]

SH-SY5Y cells [1] = test: Protection against H2O2 induced-neurotoxicity; type: cell-based, human; details: 150 μM H2O2; for Neuroprotective activity against H2O2: 6.25, 12.5, 25 μM
Experimental: H2O2 concentration that caused 50% reduction in cell viability was evaluated as previously reported. Then the cultured cells (2 × 10^4 cells/well) were incubated with test samples (at non-cytotoxic concentrations: 6.25, 12.5, 25 μM) or catechin as a positive control (at non-cytotoxic concentrations: 6.25, 12.5, 25, 50, 100 μM). Lastly, the WST-1 reagent was used to evaluate the cell viability as reported.

COX-2 = target: T2, COX-2 (Homo sapiens, UniProt P35354); test: In vitro COX-2 enzyme inhibitory assay (Cayman kit); type: biochemical; details: for IC50: mean ± SD, n = 3
T2 construct: purchased Cayman No.547
T2 sequence (P35354 18-604): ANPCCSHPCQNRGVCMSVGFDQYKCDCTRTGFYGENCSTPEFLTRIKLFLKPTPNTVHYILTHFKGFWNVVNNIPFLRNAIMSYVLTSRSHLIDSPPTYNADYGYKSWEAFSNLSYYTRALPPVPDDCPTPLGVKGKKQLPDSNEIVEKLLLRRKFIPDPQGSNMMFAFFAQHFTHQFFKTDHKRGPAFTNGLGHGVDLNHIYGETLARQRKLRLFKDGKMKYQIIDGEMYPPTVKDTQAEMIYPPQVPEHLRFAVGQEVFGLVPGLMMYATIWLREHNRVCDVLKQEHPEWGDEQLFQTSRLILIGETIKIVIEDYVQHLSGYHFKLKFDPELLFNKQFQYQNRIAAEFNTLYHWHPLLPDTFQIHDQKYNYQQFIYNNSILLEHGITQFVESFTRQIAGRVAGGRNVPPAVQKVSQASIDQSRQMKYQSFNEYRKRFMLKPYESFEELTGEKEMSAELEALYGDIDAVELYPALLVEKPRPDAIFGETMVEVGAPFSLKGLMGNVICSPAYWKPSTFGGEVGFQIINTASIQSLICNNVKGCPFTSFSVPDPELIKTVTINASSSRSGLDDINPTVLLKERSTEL
Experimental: as §1

AChE = AChE (Homo sapiens, UniProt P22303); test: biochemical; details: for Inhibitory activity against AChE: concentrations up to 100 µM
Chain of AChE (P22303 32-614): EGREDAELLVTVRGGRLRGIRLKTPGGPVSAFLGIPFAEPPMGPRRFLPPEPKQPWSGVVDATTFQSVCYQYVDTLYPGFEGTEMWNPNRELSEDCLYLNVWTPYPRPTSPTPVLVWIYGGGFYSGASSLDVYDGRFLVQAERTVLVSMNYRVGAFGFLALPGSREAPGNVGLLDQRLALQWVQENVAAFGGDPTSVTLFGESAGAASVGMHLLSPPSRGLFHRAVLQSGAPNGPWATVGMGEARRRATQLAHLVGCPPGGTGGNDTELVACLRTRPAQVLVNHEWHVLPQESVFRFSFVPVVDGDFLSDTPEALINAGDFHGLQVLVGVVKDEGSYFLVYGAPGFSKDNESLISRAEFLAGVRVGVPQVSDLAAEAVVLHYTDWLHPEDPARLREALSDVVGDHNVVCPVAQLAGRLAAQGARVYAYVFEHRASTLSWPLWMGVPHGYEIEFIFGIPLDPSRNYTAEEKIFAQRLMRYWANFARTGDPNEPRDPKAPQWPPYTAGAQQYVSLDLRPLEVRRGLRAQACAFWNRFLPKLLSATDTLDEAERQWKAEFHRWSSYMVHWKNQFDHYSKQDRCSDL

SH-SY5Y cells [2] = test: Determination of non-cytotoxic concentrations (WST-1 cell viability); type: cell-based; details: for Non-cytotoxic concentration on SH-SY5Y cells: human; for Concentration showing cytotoxic effect on SH-SY5Y cells: tested 6.25-200 μM
Experimental: In this assay, the non-toxic concentrations of the tested samples to SH-SY5Y cells, along with catechin[58] and epicatechin-3-gallate[59] as a positive controls were used for the evaluation of the neuroprotective activity. […]. Cell viability was then assessed using a previously described method.

SH-SY5Y cells [3] = test: Protection against Aβ1-42 induced-neurotoxicity; type: cell-based, human; details: only at 50 and 100 μM; Aβ1-42 25 μM
Experimental: Finally, evaluation of cell viability was conducted.

[4] = mean ± SD, n = 3, read-out: AChE inhibition IC50

T1 sequence (P23219 24-599): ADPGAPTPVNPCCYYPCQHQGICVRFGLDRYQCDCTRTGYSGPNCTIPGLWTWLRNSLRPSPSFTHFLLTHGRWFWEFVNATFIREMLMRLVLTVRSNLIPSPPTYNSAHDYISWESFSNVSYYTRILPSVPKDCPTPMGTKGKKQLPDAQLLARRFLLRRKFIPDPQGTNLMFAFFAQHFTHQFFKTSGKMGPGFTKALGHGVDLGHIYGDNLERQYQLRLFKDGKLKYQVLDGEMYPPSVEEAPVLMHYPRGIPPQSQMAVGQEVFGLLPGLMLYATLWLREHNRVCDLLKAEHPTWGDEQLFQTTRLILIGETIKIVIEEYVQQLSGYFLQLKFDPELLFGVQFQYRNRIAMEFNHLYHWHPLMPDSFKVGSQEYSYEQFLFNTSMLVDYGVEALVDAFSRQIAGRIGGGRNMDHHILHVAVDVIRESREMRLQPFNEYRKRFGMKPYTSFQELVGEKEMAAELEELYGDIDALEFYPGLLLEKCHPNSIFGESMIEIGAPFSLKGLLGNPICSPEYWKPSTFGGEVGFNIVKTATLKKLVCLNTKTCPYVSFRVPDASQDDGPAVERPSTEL

| Compound | IC50 (COX-1) [µM] | Neuroprotective activity against H2O2 (SH-SY5Y cells [1]) | COX-2 selective index S.I = IC50 COX-1/IC50 COX-2 (COX-2) | IC50 (COX-2) [µM] | inhibition at 100 µM (AChE; at 100 µM) [%] | IC50 (AChE; [4]) [µM] | Non-cytotoxic concentration on SH-SY5Y cells (SH-SY5Y cells [2]) [µM] | Inhibitory activity against AChE (AChE) | Concentration showing cytotoxic effect on SH-SY5Y cells (SH-SY5Y cells [2]) [µM] | Neuroprotection against Aβ1-42 (SH-SY5Y cells [3]) | Neuroprotective effect against H2O2 (SH-SY5Y cells [1]; only at 50 and 100 μM) | IC50 (AChE) [µM] |
| --- | --- | --- | --- | --- | --- | --- | --- | --- | --- | --- | --- | --- |
| CC(C)=CCC[C@](C)(O)[C@@H]1CC=C(C(=O)O)CC1 [Metabolite 3, Hamanasic acid A] | 28.1 ± 1.74 | didn’t show any neuroprotective activity | 4.362 | 6.45 ± 0.24 | 20 | > 100 | – | – | – | – | – | – |
| CC(C)(O)C(O)CCC(C)(O)C1CC=C(CO)CC1 (stereo not drawn) [Metabolite 6, 10β,11,15-trihydroxy-α-bisabolol] | 67.8 ± 2.28 | – | 12.58 | 5.39 ± 0.18 | – | > 100 | ≤ 12.5 | no inhibitory activity | – | – | – | – |
| epicatechin-3-gallate | – | – | – | – | – | – | – | – | 200 | exhibited neuroprotection | – | – |
| O.Oc1cc(O)c2c(c1)O[C@H](c1ccc(O)c(O)c1)[C@@H](O)C2 [catechin, reference compound] | – | – | – | – | – | – | – | – | 200 | – | exhibited neuroprotective effects | – |
| CC1=CCC(C(C)(O)CCC(O)C(C)(C)O)CC1 (stereo not drawn) [Metabolite 2, 10β,11-dihydroxy-α-bisabolol] | 71 ± 4.4 | – | 4.093 | 17.3 ± 0.66 | – | 12.9 | – | – | – | – | – | – |
| CC(C)=CCCC(C)(O)C1CCC(C)CC1 (stereo not drawn) [Metabolite 4, 2,3-dihydro-α-bisabolol] | 35.3 ± 2.18 | – | 8.598 | 4.11 ± 0.15 | – | > 100 | – | no inhibitory activity | – | – | – | – |
| CC(C)=CCCC(C)(O)C1CC=C(C)CC1 (stereo not drawn) [α-Bisabolol, (-)-α-bisabolol, reference compound] | 20.1 ± 1.19 | – | 6.889 | 2.92 ± 0.13 | – | – | ≤ 25 | no inhibitory activity | – | – | – | > 100 |
| COC(=O)C1=CCC(C(C)CCC2OC2(C)C)CC1 (stereo not drawn) [Metabolite 5, 7-dehydroxy-10,11-epoxy-3-methylcarboxy-α-bisabolol] | 16.8 ± 1.04 | didn’t show any neuroprotective activity | 6.711 | 2.51 ± 0.09 | – | – | – | no inhibitory activity | – | – | – | > 100 |
